Laboratory results reported in BindingDB's records for doi:10.1021/jm801395v (Universita Di Siena, 2009).

Tests used:
Test in all cases: Reverse Transcriptase Assay
[1] = biological target: T1, Gag-Pol polyprotein [588-1027] (Human immunodeficiency virus type 1 group M subtype B (isolate HXB2), UniProt P04585); settings: pH 7.5; 37 °C
T1 construct: 588-1027
Experimental: (§1) The inhibition of the RNA-dependent DNA polymerase activity of the HIV-1 reverse transcriptase enzyme was measured using a primer extension assay. The substrate-incorporated radioactivity was quantitated by scintillation counting.

[2] = biological target: T2, Gag-Pol polyprotein [588-1027,Y769I]/[588-1147,Y769I] (Human immunodeficiency virus 1, UniProt P04585, Y769I); settings: pH 7.5; 37 °C
T2 construct: 588-1027; 588-1147
Experimental: as §1

[3] = biological target: T3, Gag-Pol polyprotein [588-1027,Y776L]/[588-1147,Y776L] (Human immunodeficiency virus 1, UniProt P04585, Y776L)
T3 construct: 588-1027; 588-1147
Experimental: as §1

Row | Structure (SMILES) | Ki [1] | Ki [2] | Ki [3]
1 | CCC1(c2ccc(COc3cccc(Cl)c3)cc2)Oc2ccccc2-n2cccc2C1=O (stereo not given) [8-[4-(3-chlorophenoxymethyl)phenyl]-8-ethyl-9-oxa-2-azatricyclo[8.4.0.0^{2,6}]tetradeca-1(14),3,5,10,12-pentaen-7-one] | 0.1 µM | < 10 µM | –
2 | CCC1(c2ccc(COc3ccccc3)cc2)Oc2cccnc2-n2cccc2C1=O (stereo not given) [8-ethyl-8-[4-(phenoxymethyl)phenyl]-9-oxa-2,14-diazatricyclo[8.4.0.0^{2,6}]tetradeca-1(14),3,5,10,12-pentaen-7-one] | – | < 10 µM | < 10 µM
3 | CCC1(c2ccc(COc3cccc(Cl)c3)cc2)Oc2cccnc2-n2cccc2C1=O (stereo not given) [8-[4-(3-chlorophenoxymethyl)phenyl]-8-ethyl-9-oxa-2,14-diazatricyclo[8.4.0.0^{2,6}]tetradeca-1(14),3,5,10,12-pentaen-7-one] | – | < 10 µM | –
